# Results published in PubChem BioAssay (NCI).
#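 Exposure lasted 48 hours, with cells grown in 96-well plates and compounds tested at five concentrations. Here, GI50 denotes the concentration required for 50% inhibition of growth. At the TGI there is no net growth.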
# Columns and labels:
# Experiment in all cases: NCI tumour cell line growth inhibition, 48 h
# NCI-H522 lung = tested on: NCI-H522 lung
# MDA-MB-435 = tested on: MDA-MB-435
# TK-10 renal = tested on: TK-10 renal
# K-562 leukemia = tested on: K-562 leukemia
# KM12 colon = tested on: KM12 colon
# T-47D breast = tested on: T-47D breast
# SK-MEL-28 melanoma = tested on: SK-MEL-28 melanoma
# COLO 205 colon = tested on: COLO 205 colon
# UACC-62 melanoma = tested on: UACC-62 melanoma
# CAKI-1 renal = tested on: CAKI-1 renal
# SF-539 CNS = tested on: SF-539 CNS
# UACC-257 melanoma = tested on: UACC-257 melanoma
# RPMI-8226 leukemia = tested on: RPMI-8226 leukemia
# IGROV1 ovarian = tested on: IGROV1 ovarian
# SR leukemia = tested on: SR leukemia
# SK-MEL-5 melanoma = tested on: SK-MEL-5 melanoma
# CCRF-CEM leukemia = tested on: CCRF-CEM leukemia
# NCI-H226 lung = tested on: NCI-H226 lung
# OVCAR-3 ovarian = tested on: OVCAR-3 ovarian
# MDA-MB-231 breast = tested on: MDA-MB-231 breast
# PC-3 prostate = tested on: PC-3 prostate
# NCI-H460 lung = tested on: NCI-H460 lung
# HS 578T breast = tested on: HS 578T breast
# MOLT-4 leukemia = tested on: MOLT-4 leukemia
# OVCAR-8 ovarian = tested on: OVCAR-8 ovarian
# SF-268 CNS = tested on: SF-268 CNS
# SN12C renal = tested on: SN12C renal
# SK-MEL-2 melanoma = tested on: SK-MEL-2 melanoma
# NCI-H23 lung = tested on: NCI-H23 lung
# A498 renal = tested on: A498 renal
# RXF 393 renal = tested on: RXF 393 renal
# HL-60(TB) leukemia = tested on: HL-60(TB) leukemia
# A549 NSCLC = tested on: A549 NSCLC
# SF-295 CNS = tested on: SF-295 CNS
# UO-31 renal = tested on: UO-31 renal
# EKVX NSCLC = tested on: EKVX NSCLC
# OVCAR-5 ovarian = tested on: OVCAR-5 ovarian
# HOP-62 NSCLC = tested on: HOP-62 NSCLC
# HOP-92 NSCLC = tested on: HOP-92 NSCLC
# SK-OV-3 ovarian = tested on: SK-OV-3 ovarian
# DU-145 prostate = tested on: DU-145 prostate
# OVCAR-4 ovarian = tested on: OVCAR-4 ovarian
# SW-620 colon = tested on: SW-620 colon
# SNB-19 CNS = tested on: SNB-19 CNS
# 786-0 renal = tested on: 786-0 renal
# LOX IMVI melanoma = tested on: LOX IMVI melanoma
# HCT-116 colon = tested on: HCT-116 colon
# HT29 colon = tested on: HT29 colon
# U251 CNS = tested on: U251 CNS
# MCF7 breast = tested on: MCF7 breast
# HCC-2998 colon = tested on: HCC-2998 colon
# ACHN renal = tested on: ACHN renal
# MALME-3M melanoma = tested on: MALME-3M melanoma
# BT-549 breast = tested on: BT-549 breast
# HCT-15 colon = tested on: HCT-15 colon
# NCI/ADR-RES ovarian = tested on: NCI/ADR-RES ovarian
# SNB-75 CNS = tested on: SNB-75 CNS
compound,measurement,setting,value
CS(=O)(=O)c1ccc(Oc2cc(F)cc(C#N)c2)c2c1[C@H](O)[C@H](F)[C@H]2F,GI50,NCI-H522 lung,> 100 µM
same,TGI,NCI-H522 lung,> 100 µM
same,GI50,MDA-MB-435,> 100 µM
same,TGI,MDA-MB-435,> 100 µM
same,GI50,TK-10 renal,> 100 µM
same,TGI,TK-10 renal,> 100 µM
same,GI50,K-562 leukemia,> 100 µM
same,TGI,K-562 leukemia,> 100 µM
same,GI50,KM12 colon,> 100 µM
same,TGI,KM12 colon,> 100 µM
same,GI50,T-47D breast,> 100 µM
same,TGI,T-47D breast,> 100 µM
same,GI50,SK-MEL-28 melanoma,> 100 µM
same,TGI,SK-MEL-28 melanoma,> 100 µM
same,GI50,COLO 205 colon,> 100 µM
same,TGI,COLO 205 colon,> 100 µM
same,GI50,UACC-62 melanoma,> 100 µM
same,TGI,UACC-62 melanoma,> 100 µM
same,GI50,CAKI-1 renal,> 100 µM
same,TGI,CAKI-1 renal,> 100 µM
same,GI50,SF-539 CNS,> 100 µM
same,TGI,SF-539 CNS,> 100 µM
same,GI50,UACC-257 melanoma,> 100 µM
same,TGI,UACC-257 melanoma,> 100 µM
same,GI50,RPMI-8226 leukemia,> 100 µM
same,TGI,RPMI-8226 leukemia,> 100 µM
same,GI50,IGROV1 ovarian,> 100 µM
same,TGI,IGROV1 ovarian,> 100 µM
same,GI50,SR leukemia,> 100 µM
same,TGI,SR leukemia,> 100 µM
same,GI50,SK-MEL-5 melanoma,> 100 µM
same,TGI,SK-MEL-5 melanoma,> 100 µM
same,GI50,CCRF-CEM leukemia,> 100 µM
same,TGI,CCRF-CEM leukemia,> 100 µM
same,GI50,NCI-H226 lung,> 100 µM
same,TGI,NCI-H226 lung,> 100 µM
same,GI50,OVCAR-3 ovarian,> 100 µM
same,TGI,OVCAR-3 ovarian,> 100 µM
same,GI50,MDA-MB-231 breast,> 100 µM
same,TGI,MDA-MB-231 breast,> 100 µM
same,GI50,PC-3 prostate,> 100 µM
same,TGI,PC-3 prostate,> 100 µM
same,GI50,NCI-H460 lung,> 100 µM
same,TGI,NCI-H460 lung,> 100 µM
same,GI50,HS 578T breast,> 100 µM
same,TGI,HS 578T breast,> 100 µM
same,GI50,MOLT-4 leukemia,> 100 µM
same,TGI,MOLT-4 leukemia,> 100 µM
same,GI50,OVCAR-8 ovarian,> 100 µM
same,TGI,OVCAR-8 ovarian,> 100 µM
same,GI50,SF-268 CNS,> 100 µM
same,TGI,SF-268 CNS,> 100 µM
same,GI50,SN12C renal,> 100 µM
same,TGI,SN12C renal,> 100 µM
same,GI50,SK-MEL-2 melanoma,> 100 µM
same,TGI,SK-MEL-2 melanoma,> 100 µM
same,GI50,NCI-H23 lung,> 100 µM
same,TGI,NCI-H23 lung,> 100 µM
same,GI50,A498 renal,> 100 µM
same,TGI,A498 renal,> 100 µM
same,GI50,RXF 393 renal,2.53 µM
same,TGI,RXF 393 renal,> 100 µM
same,GI50,HL-60(TB) leukemia,> 100 µM
same,TGI,HL-60(TB) leukemia,> 100 µM
same,GI50,A549 NSCLC,> 100 µM
same,TGI,A549 NSCLC,> 100 µM
same,GI50,SF-295 CNS,> 100 µM
same,TGI,SF-295 CNS,> 100 µM
same,GI50,UO-31 renal,> 100 µM
same,TGI,UO-31 renal,> 100 µM
same,GI50,EKVX NSCLC,> 100 µM
same,TGI,EKVX NSCLC,> 100 µM
same,GI50,OVCAR-5 ovarian,> 100 µM
same,TGI,OVCAR-5 ovarian,> 100 µM
same,GI50,HOP-62 NSCLC,> 100 µM
same,TGI,HOP-62 NSCLC,> 100 µM
same,GI50,HOP-92 NSCLC,> 100 µM
same,TGI,HOP-92 NSCLC,> 100 µM
same,GI50,SK-OV-3 ovarian,> 100 µM
same,TGI,SK-OV-3 ovarian,> 100 µM
same,GI50,DU-145 prostate,> 100 µM
same,TGI,DU-145 prostate,> 100 µM
same,GI50,OVCAR-4 ovarian,> 100 µM
same,TGI,OVCAR-4 ovarian,> 100 µM
same,GI50,SW-620 colon,> 100 µM
same,TGI,SW-620 colon,> 100 µM
same,GI50,SNB-19 CNS,> 100 µM
same,TGI,SNB-19 CNS,> 100 µM
same,GI50,786-0 renal,> 100 µM
same,TGI,786-0 renal,> 100 µM
same,GI50,LOX IMVI melanoma,> 100 µM
same,TGI,LOX IMVI melanoma,> 100 µM
same,GI50,HCT-116 colon,> 100 µM
same,TGI,HCT-116 colon,> 100 µM
same,GI50,HT29 colon,> 100 µM
same,TGI,HT29 colon,> 100 µM
same,GI50,U251 CNS,> 100 µM
same,TGI,U251 CNS,> 100 µM
same,GI50,MCF7 breast,> 100 µM
same,TGI,MCF7 breast,> 100 µM
same,GI50,HCC-2998 colon,> 100 µM
same,TGI,HCC-2998 colon,> 100 µM
same,GI50,ACHN renal,> 100 µM
same,TGI,ACHN renal,> 100 µM
same,GI50,MALME-3M melanoma,> 100 µM
same,TGI,MALME-3M melanoma,> 100 µM
same,GI50,BT-549 breast,> 100 µM
same,TGI,BT-549 breast,> 100 µM
same,GI50,HCT-15 colon,> 100 µM
same,TGI,HCT-15 colon,> 100 µM
same,GI50,NCI/ADR-RES ovarian,> 100 µM
same,TGI,NCI/ADR-RES ovarian,> 100 µM
same,GI50,SNB-75 CNS,> 100 µM
same,TGI,SNB-75 CNS,> 100 µM
